Test results taken from ChEMBL document CHEMBL4024706 (Eur J Med Chem, 2017).

Legend:
[1] = molecular target: Ephrin type-A receptor 8 (Homo sapiens) (UniProt P29322); test: Inhibition of wild-type human partial length EPHA8 (Q608 to C920 residues) expressed in bacterial expression system assessed as residual activity at 1 uM by Kinomescan method relative to control
[2] = molecular target: Mitogen-activated protein kinase kinase kinase 5 (Homo sapiens) (UniProt Q99683); test: Inhibition of wild-type human partial length ASK1 (E648 to S964 residues) expressed in bacterial expression system assessed as residual activity at 1 uM by Kinomescan method relative to control
[3] = molecular target: Ribosomal protein S6 kinase alpha-2 (Homo sapiens) (UniProt Q15349); test: Inhibition of wild-type human partial length C-terminal RSK3 kinase domain 2 (V403 to K700 residues) expressed in bacterial expression system assessed as residual activity at 1 uM by Kinomescan method relative to control
[4] = molecular target: BDNF/NT-3 growth factors receptor (Homo sapiens) (UniProt Q16620); test: Inhibition of wild-type human partial length TRKB (Q547 to G838 residues) expressed in mammalian expression system assessed as residual activity at 1 uM by Kinomescan method relative to control
[5] = molecular target: Serine/threonine-protein kinase haspin (Homo sapiens) (UniProt Q8TF76); test: Inhibition of wild-type human partial length HASPIN (I452 to K798 residues) expressed in mammalian expression system assessed as residual activity at 1 uM by Kinomescan method relative to control
U-937 = test: Growth inhibition of human U937 cells; assay type: functional; conditions: Homo sapiens, U-937
[6] = system: Phosphatidylinositol 4,5-bisphosphate 3-kinase catalytic subunit alpha isoform (Homo sapiens), P42336 [E542K]; test: Inhibition of human partial length PIK3CA E542K mutant (R108 to N1068 residues) expressed in mammalian expression system assessed as residual activity at 1 uM by Kinomescan method relative to control
[7] = molecular target: Ephrin type-A receptor 6 (Homo sapiens) (UniProt Q9UF33); test: Inhibition of wild-type human partial length EPHA6 (Y700 to E1046 residues) expressed in bacterial expression system assessed as residual activity at 1 uM by Kinomescan method relative to control
[8] = molecular target: Phosphorylase b kinase gamma catalytic chain, liver/testis isoform (Homo sapiens) (UniProt P15735); test: Inhibition of wild-type human partial length PHKG2 (M1 to W300 residues) expressed in bacterial expression system assessed as residual activity at 1 uM by Kinomescan method relative to control
[9] = molecular target: Phosphatidylinositol 4,5-bisphosphate 3-kinase catalytic subunit delta isoform (Homo sapiens) (UniProt O00329); test: Inhibition of wild-type human partial length PIK3CD (R108 to Q1044 residues) expressed in mammalian expression system assessed as residual activity at 1 uM by Kinomescan method relative to control
[10] = molecular target: Tyrosine-protein kinase Fyn (Homo sapiens) (UniProt P06241); test: Inhibition of wild-type human partial length FYN (T243 to L534 residues) expressed in bacterial expression system assessed as residual activity at 1 uM by Kinomescan method relative to control
[11] = system: Phosphatidylinositol 4,5-bisphosphate 3-kinase catalytic subunit alpha isoform (Homo sapiens), P42336 [M1043I]; test: Inhibition of human partial length PIK3CA M1043I mutant (R108 to N1068 residues) expressed in mammalian expression system assessed as residual activity at 1 uM by Kinomescan method relative to control
[12] = molecular target: Activin receptor type-2B (Homo sapiens) (UniProt Q13705); test: Inhibition of wild-type human ACVR2B (H169 to D504 residues) expressed in bacterial expression system assessed as residual activity at 1 uM by Kinomescan method relative to control
[13] = molecular target: Tyrosine-protein kinase receptor Tie-1 (Homo sapiens) (UniProt P35590); test: Inhibition of wild-type human partial length TIE1 (T819 to A1138 residues) expressed in bacterial expression system assessed as residual activity at 1 uM by Kinomescan method relative to control
[14] = molecular target: Serine/threonine-protein kinase Nek2 (Homo sapiens) (UniProt P51955); test: Inhibition of wild-type human partial length NEK2 (M1 to K309 residues) expressed in bacterial expression system assessed as residual activity at 1 uM by Kinomescan method relative to control
[15] = molecular target: Serine/threonine-protein kinase PAK 6 (Homo sapiens) (UniProt Q9NQU5); test: Inhibition of wild-type human partial length PAK6 (N298 to C681 residues) expressed in bacterial expression system assessed as residual activity at 1 uM by Kinomescan method relative to control
[16] = molecular target: cAMP-dependent protein kinase catalytic subunit PRKX (Homo sapiens) (UniProt P51817); test: Inhibition of wild-type human partial length PRKX (M1 to F358 residues) expressed in bacterial expression system assessed as residual activity at 1 uM by Kinomescan method relative to control
[17] = molecular target: Cyclin-dependent kinase 7 (Homo sapiens) (UniProt P50613); test: Inhibition of wild-type human full length CDK7 (M1 to L344 residues) expressed in mammalian expression system assessed as residual activity at 1 uM by Kinomescan method relative to control
[18] = molecular target: Serine/threonine-protein kinase BRSK1 (Homo sapiens) (UniProt Q8TDC3); test: Inhibition of wild-type human partial length BRSK1 (M1 to E754 residues) expressed in bacterial expression system assessed as residual activity at 1 uM by Kinomescan method relative to control
[19] = molecular target: Serine/threonine-protein kinase SIK2 (Homo sapiens) (UniProt Q9H0K1); test: Inhibition of wild-type human full length SIK2 (M1 to N926 residues) expressed in bacterial expression system assessed as residual activity at 1 uM by Kinomescan method relative to control
[20] = molecular target: Serine/threonine-protein kinase Sgk2 (Homo sapiens) (UniProt Q9HBY8); test: Inhibition of wild-type human partial length SGK2 (L54 to C427 residues) expressed in mammalian expression system assessed as residual activity at 1 uM by Kinomescan method relative to control
[21] = molecular target: Transient receptor potential cation channel subfamily M member 6 (Homo sapiens) (UniProt Q9BX84); test: Inhibition of wild-type human partial length TRPM6 (Q1723 to I1998 residues) expressed in mammalian expression system assessed as residual activity at 1 uM by Kinomescan method relative to control
[22] = molecular target: Microtubule-associated serine/threonine-protein kinase 1 (Homo sapiens) (UniProt Q9Y2H9); test: Inhibition of wild-type human partial length MAST1 (S346 to V730 residues) expressed in mammalian expression system assessed as residual activity at 1 uM by Kinomescan method relative to control
[23] = molecular target: ALK tyrosine kinase receptor (Homo sapiens) (UniProt Q9UM73); test: Inhibition of wild-type human partial length ALK (I1088 to E1409 residues) expressed in mammalian expression system assessed as residual activity at 1 uM by Kinomescan method relative to control
[24] = molecular target: Ephrin type-A receptor 4 (Homo sapiens) (UniProt P54764); test: Inhibition of wild-type human partial length EPHA4 (T601 to R897 residues) expressed in bacterial expression system assessed as residual activity at 1 uM by Kinomescan method relative to control

Microtubule-associated serine/threonine-protein kinase 1 (Homo sapiens), sequence (Q9Y2H9 whole entry, looked up, the tested form may be a part): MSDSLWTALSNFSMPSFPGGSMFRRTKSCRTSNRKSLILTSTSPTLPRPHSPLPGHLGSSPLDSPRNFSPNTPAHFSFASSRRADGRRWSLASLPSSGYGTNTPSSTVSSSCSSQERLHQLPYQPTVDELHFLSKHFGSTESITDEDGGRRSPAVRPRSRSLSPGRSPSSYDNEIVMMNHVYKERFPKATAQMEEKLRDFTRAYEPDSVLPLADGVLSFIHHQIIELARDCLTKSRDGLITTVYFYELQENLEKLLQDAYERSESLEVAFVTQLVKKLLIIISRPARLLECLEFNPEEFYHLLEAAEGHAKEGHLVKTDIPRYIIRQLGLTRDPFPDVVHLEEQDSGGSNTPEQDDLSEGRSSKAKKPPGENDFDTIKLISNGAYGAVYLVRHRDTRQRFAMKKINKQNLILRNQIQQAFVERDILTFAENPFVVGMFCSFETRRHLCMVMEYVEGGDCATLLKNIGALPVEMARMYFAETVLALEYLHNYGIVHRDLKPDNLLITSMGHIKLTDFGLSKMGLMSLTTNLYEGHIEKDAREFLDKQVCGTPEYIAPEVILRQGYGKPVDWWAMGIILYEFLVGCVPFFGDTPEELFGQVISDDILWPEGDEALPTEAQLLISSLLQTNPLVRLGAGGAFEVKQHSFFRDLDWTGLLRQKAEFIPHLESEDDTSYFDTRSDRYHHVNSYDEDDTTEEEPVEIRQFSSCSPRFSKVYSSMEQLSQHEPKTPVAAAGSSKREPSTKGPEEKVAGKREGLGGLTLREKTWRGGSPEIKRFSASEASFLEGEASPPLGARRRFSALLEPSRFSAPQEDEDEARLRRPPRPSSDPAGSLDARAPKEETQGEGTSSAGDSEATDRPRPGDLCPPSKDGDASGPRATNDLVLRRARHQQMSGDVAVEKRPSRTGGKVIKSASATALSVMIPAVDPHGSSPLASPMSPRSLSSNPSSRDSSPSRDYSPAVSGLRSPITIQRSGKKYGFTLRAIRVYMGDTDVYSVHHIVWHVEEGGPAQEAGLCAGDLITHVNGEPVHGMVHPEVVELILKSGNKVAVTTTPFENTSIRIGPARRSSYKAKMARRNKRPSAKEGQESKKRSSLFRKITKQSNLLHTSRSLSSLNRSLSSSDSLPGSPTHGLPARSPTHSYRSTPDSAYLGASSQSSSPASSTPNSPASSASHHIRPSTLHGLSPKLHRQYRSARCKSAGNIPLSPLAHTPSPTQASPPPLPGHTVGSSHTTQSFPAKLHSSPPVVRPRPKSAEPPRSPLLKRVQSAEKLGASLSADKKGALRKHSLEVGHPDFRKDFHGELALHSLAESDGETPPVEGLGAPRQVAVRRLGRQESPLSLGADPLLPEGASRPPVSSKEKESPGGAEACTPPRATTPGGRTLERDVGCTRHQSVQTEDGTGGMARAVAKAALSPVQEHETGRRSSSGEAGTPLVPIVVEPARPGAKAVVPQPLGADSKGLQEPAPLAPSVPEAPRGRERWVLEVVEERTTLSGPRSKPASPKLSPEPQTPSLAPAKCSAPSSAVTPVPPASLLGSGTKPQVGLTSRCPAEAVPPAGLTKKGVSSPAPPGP
Ephrin type-A receptor 6 (Homo sapiens), sequence (Q9UF33 whole entry, the tested form may be a part, canonical isoform): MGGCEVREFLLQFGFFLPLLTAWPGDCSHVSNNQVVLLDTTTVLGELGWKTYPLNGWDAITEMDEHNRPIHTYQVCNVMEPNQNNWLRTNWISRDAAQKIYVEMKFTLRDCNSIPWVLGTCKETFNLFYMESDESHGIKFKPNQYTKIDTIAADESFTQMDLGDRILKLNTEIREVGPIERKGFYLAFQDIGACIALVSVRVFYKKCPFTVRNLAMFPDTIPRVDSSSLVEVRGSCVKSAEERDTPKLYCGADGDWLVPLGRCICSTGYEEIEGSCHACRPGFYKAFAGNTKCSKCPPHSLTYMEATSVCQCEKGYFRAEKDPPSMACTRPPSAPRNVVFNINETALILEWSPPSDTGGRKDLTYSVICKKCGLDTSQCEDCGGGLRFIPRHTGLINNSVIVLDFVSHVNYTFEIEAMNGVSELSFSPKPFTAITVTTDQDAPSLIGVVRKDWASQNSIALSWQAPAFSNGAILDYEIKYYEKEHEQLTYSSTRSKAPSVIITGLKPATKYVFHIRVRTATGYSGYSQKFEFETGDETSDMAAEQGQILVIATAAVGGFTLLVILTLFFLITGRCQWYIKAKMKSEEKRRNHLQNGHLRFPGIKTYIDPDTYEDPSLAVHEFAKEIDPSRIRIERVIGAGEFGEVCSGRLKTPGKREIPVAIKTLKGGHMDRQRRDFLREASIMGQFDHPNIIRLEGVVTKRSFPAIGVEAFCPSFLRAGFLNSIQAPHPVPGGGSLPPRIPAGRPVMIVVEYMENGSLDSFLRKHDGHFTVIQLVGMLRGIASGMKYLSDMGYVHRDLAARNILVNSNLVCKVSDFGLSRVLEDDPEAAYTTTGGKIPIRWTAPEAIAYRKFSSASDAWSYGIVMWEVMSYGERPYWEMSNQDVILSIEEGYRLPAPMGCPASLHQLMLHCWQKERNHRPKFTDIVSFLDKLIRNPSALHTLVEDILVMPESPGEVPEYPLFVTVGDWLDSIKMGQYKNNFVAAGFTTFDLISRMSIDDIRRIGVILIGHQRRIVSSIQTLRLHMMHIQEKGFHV
Ephrin type-A receptor 8 (Homo sapiens), sequence (P29322 whole entry, the tested form may be a part): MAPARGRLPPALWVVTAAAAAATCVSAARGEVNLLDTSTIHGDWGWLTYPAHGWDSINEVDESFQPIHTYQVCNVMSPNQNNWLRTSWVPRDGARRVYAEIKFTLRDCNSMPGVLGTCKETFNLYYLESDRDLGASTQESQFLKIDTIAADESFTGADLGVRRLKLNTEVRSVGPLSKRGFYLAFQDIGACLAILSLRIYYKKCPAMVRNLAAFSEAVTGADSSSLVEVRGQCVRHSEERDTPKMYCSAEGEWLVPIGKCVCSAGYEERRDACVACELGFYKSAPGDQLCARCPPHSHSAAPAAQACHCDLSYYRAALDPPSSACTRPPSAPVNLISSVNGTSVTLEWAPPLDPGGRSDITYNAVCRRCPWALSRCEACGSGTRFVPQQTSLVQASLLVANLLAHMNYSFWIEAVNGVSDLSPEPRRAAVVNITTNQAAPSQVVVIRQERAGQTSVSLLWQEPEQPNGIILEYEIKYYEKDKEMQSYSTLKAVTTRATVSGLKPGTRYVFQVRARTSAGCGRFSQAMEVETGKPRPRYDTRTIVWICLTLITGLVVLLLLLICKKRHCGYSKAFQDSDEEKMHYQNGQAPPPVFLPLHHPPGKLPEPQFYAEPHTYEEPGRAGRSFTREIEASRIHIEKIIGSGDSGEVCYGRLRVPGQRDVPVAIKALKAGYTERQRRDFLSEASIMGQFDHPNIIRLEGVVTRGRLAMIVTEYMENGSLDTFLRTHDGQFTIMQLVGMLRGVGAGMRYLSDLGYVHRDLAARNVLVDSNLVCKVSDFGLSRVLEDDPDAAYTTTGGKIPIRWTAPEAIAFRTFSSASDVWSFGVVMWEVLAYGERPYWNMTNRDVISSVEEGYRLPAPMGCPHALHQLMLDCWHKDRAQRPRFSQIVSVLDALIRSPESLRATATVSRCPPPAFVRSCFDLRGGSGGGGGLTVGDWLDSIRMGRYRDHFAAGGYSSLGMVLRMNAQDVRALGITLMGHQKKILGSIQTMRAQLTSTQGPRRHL
Serine/threonine-protein kinase PAK 6 (Homo sapiens), sequence (Q9NQU5 whole entry, looked up, the tested form may be a part): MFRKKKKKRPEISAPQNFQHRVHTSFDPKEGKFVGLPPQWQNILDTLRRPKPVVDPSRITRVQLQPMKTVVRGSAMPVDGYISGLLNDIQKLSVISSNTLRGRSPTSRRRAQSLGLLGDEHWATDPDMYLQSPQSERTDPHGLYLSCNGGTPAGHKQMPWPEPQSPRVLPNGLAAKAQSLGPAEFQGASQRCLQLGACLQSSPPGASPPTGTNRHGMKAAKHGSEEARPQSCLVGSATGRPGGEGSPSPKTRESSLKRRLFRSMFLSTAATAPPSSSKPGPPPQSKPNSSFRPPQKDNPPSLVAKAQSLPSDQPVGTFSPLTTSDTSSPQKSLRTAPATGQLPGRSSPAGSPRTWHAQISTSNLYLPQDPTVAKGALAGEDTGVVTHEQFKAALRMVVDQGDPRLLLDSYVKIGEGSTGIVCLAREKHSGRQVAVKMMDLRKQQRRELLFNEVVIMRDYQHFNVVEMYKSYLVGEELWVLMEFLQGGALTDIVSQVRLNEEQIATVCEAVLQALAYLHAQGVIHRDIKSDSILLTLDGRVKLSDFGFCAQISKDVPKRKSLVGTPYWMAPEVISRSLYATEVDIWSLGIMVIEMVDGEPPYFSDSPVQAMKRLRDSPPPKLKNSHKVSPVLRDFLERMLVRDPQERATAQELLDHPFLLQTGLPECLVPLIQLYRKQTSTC
Tyrosine-protein kinase Fyn (Homo sapiens), sequence (P06241 2-537 limits assumed): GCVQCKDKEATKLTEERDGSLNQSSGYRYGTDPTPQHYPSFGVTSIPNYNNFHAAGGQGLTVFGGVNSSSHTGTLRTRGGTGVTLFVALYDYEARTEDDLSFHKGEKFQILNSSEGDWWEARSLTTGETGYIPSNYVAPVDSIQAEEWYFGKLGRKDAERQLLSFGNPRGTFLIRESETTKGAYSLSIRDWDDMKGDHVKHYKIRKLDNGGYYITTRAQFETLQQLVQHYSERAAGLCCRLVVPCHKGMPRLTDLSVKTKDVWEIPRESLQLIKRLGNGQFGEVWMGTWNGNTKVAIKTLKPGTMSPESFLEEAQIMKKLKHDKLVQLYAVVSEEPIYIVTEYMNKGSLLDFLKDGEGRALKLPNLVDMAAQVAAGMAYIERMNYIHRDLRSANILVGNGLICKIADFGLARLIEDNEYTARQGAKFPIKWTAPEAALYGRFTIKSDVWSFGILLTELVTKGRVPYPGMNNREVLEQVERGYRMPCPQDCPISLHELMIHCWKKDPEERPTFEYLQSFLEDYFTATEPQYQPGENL

C=CC(=O)Nc1cc(Nc2cc(-c3cccc(NC(=O)c4ccc(C(C)(C)C)cc4)c3C)cn(C)c2=O)ccc1C(=O)N1CCOCC1
Activity [1]: 97%
Activity [2]: 100%
Activity [3]: 83%
Activity [4]: 80%
Activity [5]: 54%
GI50 (U-937): 4.8 µM
Activity [6]: 94%
Activity [7]: 93%
Activity [8]: 100%
Activity [9]: 100%
Activity [10]: 73%
Activity [11]: 100%
Activity [12]: 73%
Activity [13]: 87%
Activity [14]: 99%
Activity [15]: 100%
Activity [16]: 98%
Activity [17]: 89%
Activity [18]: 100%
Activity [19]: 87%
Activity [20]: 93%
Activity [21]: 99%
Activity [22]: 98%
Activity [23]: 94%
Activity [24]: 83%
